Measurements reported in PubChem BioAssay AID1919013 (Molecular Pharmacology Branch, DTP, NCI, 2023).

Tested on: LG0703-F498-PDC complex spheroid growth
Experiment: Anticancer human tumor LG0703-F498-PDC patient-derived lung adenocarcinoma cell line growth inhibition [AhR]
Conditions: for IC50: curve of first compound; for viability, T/C: stronger effect = lower value
Method in brief: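 Complex tumor spheroids co-cultured with HUVEC and human MSC stroma; AhR antagonists tested in combination with standard-of-care and investigational agents. Top concentration at or near clinical Cmax (else 10 microM), half-log dilutions; growth expressed as percent test/control.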

[1] = second compound 0.1 µM, first compound 0.0316 µM
[2] = second compound 0.1 µM, first compound 0.1 µM
[3] = second compound 0.1 µM, first compound 0.316 µM
[4] = second compound 0.1 µM, first compound 1 µM
[5] = second compound 0.1 µM, first compound 3.16 µM
[6] = second compound 0.1 µM, first compound 10 µM
[7] = second compound 0.316 µM, first compound 0.0316 µM
[8] = second compound 0.316 µM, first compound 0.1 µM
[9] = second compound 0.316 µM, first compound 0.316 µM
[10] = second compound 0.316 µM, first compound 1 µM
[11] = second compound 0.316 µM, first compound 3.16 µM
[12] = second compound 0.316 µM, first compound 10 µM
[13] = second compound 1 µM, first compound 0.0316 µM
[14] = second compound 1 µM, first compound 0.1 µM
[15] = second compound 1 µM, first compound 0.316 µM
[16] = second compound 1 µM, first compound 1 µM
[17] = second compound 1 µM, first compound 3.16 µM
[18] = second compound 1 µM, first compound 10 µM
[19] = second compound 3.16 µM, first compound 0.0316 µM
[20] = second compound 3.16 µM, first compound 0.1 µM
[21] = second compound 3.16 µM, first compound 0.316 µM
[22] = second compound 3.16 µM, first compound 1 µM
[23] = second compound 3.16 µM, first compound 3.16 µM
[24] = second compound 3.16 µM, first compound 10 µM
[25] = second compound 10 µM, first compound 0.0316 µM
[26] = second compound 10 µM, first compound 0.1 µM
[27] = second compound 10 µM, first compound 0.316 µM
[28] = second compound 10 µM, first compound 1 µM
[29] = second compound 10 µM, first compound 3.16 µM
[30] = second compound 10 µM, first compound 10 µM
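Note: luminescence taken as a proxy for viable cell amount.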
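Throughout, for viability, T/C: percent of DMSO vehicle control where 100% means growth equal to vehicle.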

IC50 (second compound 0.1 µM) | IC50 (second compound 0.316 µM) | IC50 (second compound 1 µM) | IC50 (second compound 3.16 µM) | IC50 (second compound 10 µM) | Compound | viability, T/C [1] | viability, T/C [2] | viability, T/C [3] | viability, T/C [4] | viability, T/C [5] | viability, T/C [6] | viability, T/C [7] | viability, T/C [8] | viability, T/C [9] | viability, T/C [10] | viability, T/C [11] | viability, T/C [12] | viability, T/C [13] | viability, T/C [14] | viability, T/C [15] | further results
> 10000 nM | > 10000 nM | > 10000 nM | > 10000 nM | > 10000 nM | O=C(c1cc(Cc2n[nH]c(=O)c3ccccc23)ccc1F)N1CCN(C(=O)C2CC2)CC1 + Cc1ccccc1N=Nc1ccc(NC(=O)c2ccnn2C)c(C)c1 | 89.3% | 94.8% | 89.8% | 93.8% | 85.7% | 84.6% | 96.5% | 119% | 95.7% | 102% | 102% | 79.9% | 86.7% | 98% | 88.7% | viability, T/C [16]: 94.4%; viability, T/C [17]: 90.2%; viability, T/C [18]: 82.2%; viability, T/C [19]: 82.1%; viability, T/C [20]: 97.1%; viability, T/C [21]: 83.5%; viability, T/C [22]: 86.9%; viability, T/C [23]: 83.9%; viability, T/C [24]: 73.9%; viability, T/C [25]: 85.6%; viability, T/C [26]: 93%; viability, T/C [27]: 94.5%; viability, T/C [28]: 77.8%; viability, T/C [29]: 72.3%; viability, T/C [30]: 70.5%
3600 nM | 1470 nM | 882 nM | 617 nM | 638 nM | NS(=O)(=O)OCC1CC(n2ccc3c(NC4CCc5ccccc54)ncnc32)CC1O (stereo not given) + CC(CO)NC(=O)c1cc(-c2ccc(Cl)cc2)nn(-c2cnn(C)c2)c1=O | 94.1% | 99.9% | 81.9% | 71% | 51.7% | 38.3% | 96.4% | 88.9% | 78.9% | 51.7% | 45% | 36.2% | 89% | 76.7% | 65.4% | viability, T/C [16]: 48.6%; viability, T/C [17]: 36.8%; viability, T/C [18]: 38.5%; viability, T/C [19]: 78.4%; viability, T/C [20]: 73.5%; viability, T/C [21]: 60.8%; viability, T/C [22]: 42.5%; viability, T/C [23]: 34.3%; viability, T/C [24]: 34.2%; viability, T/C [25]: 78.5%; viability, T/C [26]: 72.6%; viability, T/C [27]: 60.5%; viability, T/C [28]: 43.4%; viability, T/C [29]: 34.1%; viability, T/C [30]: 31.9%
849 nM | 563 nM | 571 nM | < 31.6 nM | < 31.6 nM | Nc1ccccc1NC(=O)c1ccc(CNC(=O)OCc2cccnc2)cc1 + Cc1cncc(-c2nc(NCCc3c[nH]c4ccccc34)c3ncn(C(C)C)c3n2)c1 | 93% | 89.2% | 68.7% | 53.4% | 4.49% | 0.69% | 100% | 90.4% | 67.2% | 34.5% | 3.29% | 0.43% | 78.4% | 87.5% | 62.8% | viability, T/C [16]: 36.5%; viability, T/C [17]: 2.86%; viability, T/C [18]: 0.16%; viability, T/C [19]: 34%; viability, T/C [20]: 23.7%; viability, T/C [21]: 21%; viability, T/C [22]: 10.6%; viability, T/C [23]: 3.34%; viability, T/C [24]: 0.15%; viability, T/C [25]: 0.75%; viability, T/C [26]: 0.81%; viability, T/C [27]: 0.77%; viability, T/C [28]: 0.69%; viability, T/C [29]: 0.77%; viability, T/C [30]: 0.17%
